pIC50: −log10 of the molar value.
Experiments:
RAR and RXR receptors = experiment: Co-transfection assay, RARs and RXRs taken together; format: cell-based
Experimental: (§1) Utilizing the "cis-trans" or "co-transfection" assay described by Evans et al., Science, 240:889-95 (May 13, 1988), the disclosure of which is herein incorporated by reference, the retinoid compounds of the present invention were tested and found to have strong, specific activity as either selective RAR agonists, selective RXR agonists, or as pan-agonist activators of both RAR and RXR receptors. This assay is described in further detail in U.S. Pat. Nos. 4,981,784 and 5,071,773, the disclosures of which are incorporated herein by reference.
(§2) The co-transfection assay provides a method for identifying functional agonists which mimic, or antagonists which inhibit, the effect of native hormones, and quantifying their activity for responsive IR proteins. In this regard, the co-transfection assay mimics an in vivo system in the laboratory. Importantly, activity in the co-transfection assay correlates very well with known in vivo activity, such that the co-transfection assay functions as a qualitative and quantitative predictor of a tested compounds Ln vivo pharmacology. See, e.g., T. Berger et al. 41 J. Steroid Biochem. Molec. Biol. 733 (1992), the disclosure of which is herein incorporated by reference.
(§3) In the co-transfection assay, a cloned cDNA for an IR (e.g., human RARα, RARβ, RXRγ) under the control of a constitutive promoter (e.g., the SV 40 promoter) is introduced by transfection (a procedure to induce cells to take up foreign genes) into a background cell substantially devoid of endogenous IRs. This introduced gene directs the recipient cells to make the IR protein of interest. A second gene is also introduced (co-transfected) into the same cells in conjunction with the IR gene. This second gene, comprising the cDNA for a reporter protein, such as firefly luciferase (LUC), controlled by an appropriate hormone responsive promoter containing a hormone response element (HRE). This reporter plasmid functions as a reporter for the transcription-modulating activity of the target IR. Thus, the reporter acts as a surrogate for the products (mRNA then protein) normally expressed by a gene under control of the target receptor and its native hormone.
(§4) The co-transfection assay can detect small molecule agonists or antagonists of target IRs. Exposing the transfected cells to an agonist ligand compound increases reporter activity in the transfected cells. This activity can be conveniently measured, e.g., by increasing luciferase production, which reflects compound-dependent, IR-mediated increases in reporter transcription. […] . Increasing concentrations of a suspected antagonist will decrease the reporter signal (e.g., luciferase production). The co-transfection assay is therefore useful to detect both agonists and antagonists of specific IRs. Furthermore, it determines not only whether a compound interacts with a particular IR, but whether this interaction mimics (agonizes) or blocks (antagonizes) the effects of the native regulatory molecules on target gene expression, as well as the specificity and strength of this interaction.
To determine RAR and/or RXR agonist activity of the compounds of the present invention, the CV-1 cells were transiently transfected by calcium phosphate coprecipitation according to the procedure of Berger et al., 41 J.Steroid Biochem. Mol. Biol., 733 (1992) with the following receptor expressing plasmids: pRShRARα: Giguere et al., 330 Nature, 624 (1987); pRShRARβ and pRShRARγ, Ishikawa et al., 4 Mol. Endocrin., 837 (1990); pRShRXRα, Mangelsdorf et al., 345 Nature, 224 (1990); and pRSmRXRβ and pRSmRXRγ, Mangelsdorf et al., 6 Genes & Devel., 329 (1992), the disclosures of which are herein incorporated by reference.

RARs = experiment: Co-transfection assay, RARs taken together; format: cell-based; conditions: Table 1
Experimental: as §1, §2, §3
as §4, with “Furthermore, it determines not only whether a compound interacts with a particular IR, but whether this interaction mimics (agonizes) or blocks (antagonizes) the effects of the native regulatory molecules on target gene expression, as well as the specificity and strength of this interaction.” left out

TPA induction of ODC = conditions: literature; cited from earlier work
AML-193 cell line = experiment: Incorporation of 3H-thymidine, AML-193; conditions: 96 h, read-out: TdR IC50

pIC50 (AML-193 cell line) | Structure (SMILES) | selectivity / potency profile on RARs and RXRs in words (RAR and RXR receptors) | RAR activity in words (RARs) | effect on ODC activity, in words (TPA induction of ODC)
– | CC(/C=C/CC1CCCc2cc3c(cc21)C(C)(C)CCC3(C)C)=C\C(=O)O (racemic) [Compound 124b, (2E,4E)-3-Methyl-6-(1,2,3,4,5,6,7,8-octahydro-5,5,8,8-tetramethylanthracen-1-yl)hexa-2,4-dienoic acid] | superior potency profiles to that of the known RXR active pan-agonist compound 9-cis retinoic acid | – | –
– | CC(/C=C/C=C1/CCCc2cc3c(cc21)C(C)(C)CCC3(C)C)=C\C(=O)O [Compound 101b, (2E,4E)-3-Methyl-6-[(Z)-3,4,5,6,7,8-hexahydro-5,5,8,8-tetramethyl-2H-anthracen-1-ylidene]hexa-2,4-dienoic acid] | superior potency profiles to that of the known RXR active pan-agonist compound 9-cis retinoic acid | extremely potent RAR active | –
– | CC(/C=C/C=C1/CC(C)(C)Oc2cc3c(cc21)C(C)(C)CCC3(C)C)=C\C(=O)O [Compound 104b, (2E,4E)-3-Methyl-6-(2,3,6,7,8,9-hexahydro-2,2,6,6,9,9-hexamethylbenzo[b]-chromen-4-ylidene)-hexa-2,4-dienoic acid] | potent and selective RXR compound | – | –
– | CC(/C=C/C=C1\CCCc2cc3c(cc21)C(C)(C)CCC3(C)C)=C\C(=O)O [Compound 109b, (2E,4E)-3-Methyl-6-[(E)-3,4,5,6,7,8-hexahydro-5,5,8,8-tetramethyl-2H-anthracen-1-ylidene]hexa-2,4-dienoic acid] | RAR selective | extremely potent RAR active | –
– | CC(/C=C/C=C1\CCOc2cc3c(cc21)C(C)(C)CCC3(C)C)=C\C(=O)O [Compound 119b, (2E,4E)-3-Methyl-6-[(E)-2,3,6,7,8,9-hexahydro-6,6,9,9-tetramethyl-benzo[g]chromen-4-ylidene]hexa-2,4-dienoic acid] | RAR selective | extremely potent RAR active | –
– | CC(/C=C/C=C1/CCOc2cc3c(cc21)C(C)(C)CCC3(C)C)=C\C(=O)O [Compound 144b] | superior potency profiles to that of the known RXR active pan-agonist compound 9-cis retinoic acid | extremely potent RAR active | –
– | CCCCCCCCCCCCCC(=O)O[C@@H]1[C@@H](C)[C@@]2(O)[C@@H](C=C(CO)C[C@]3(O)C(=O)C(C)=C[C@@H]23)[C@@H]2C(C)(C)[C@]12OC(C)=O [TPA, 12-0-tetradecanoylphorbor-13-acetate] | – | – | induces ODC activity
10.00 | C/C(=C\c1ccc(C(=O)O)cc1)c1ccc2c(c1)C(C)(C)CCC2(C)C [TTNPB, (E)-4-[2-(5,6,7,8-tetrahydro-5,5,8,8-tetramethyl-2-napthalenyl)-1-propenyl]benzoic acid] | – | – | –
– | CC1=C(/C=C/C(C)=C/C=C/C(C)=C/C(=O)O)C(C)(C)CCC1 [retinoic acid] | – | – | inhibits this induction of ODC by TPA
